Experimental data from patent US9505772B2, “Aromatic ring compound” (TAKEDA PHARMACEUTICAL COMPANY LIMITED, priority 2012, dated 2016).

Tests used:
human MCHR1 [1] = molecular target: T1, human MCHR1 (Homo sapiens, UniProt Q99705); experiment: Human MCH receptor 1 (MCHR1) binding inhibitory activity, binding assay with [125I]-MCH(4-19); details: test compound 0.1 μM, human MCHR1-expressing CHO cell membrane fraction, read-out: Binding inhibition rate % (0.1 μM)
T1 construct: expressed in transfected cells; host or cells: CHO cell clone 57 (described in WO01/82925); membrane fraction
T1 sequence (Q99705 whole entry): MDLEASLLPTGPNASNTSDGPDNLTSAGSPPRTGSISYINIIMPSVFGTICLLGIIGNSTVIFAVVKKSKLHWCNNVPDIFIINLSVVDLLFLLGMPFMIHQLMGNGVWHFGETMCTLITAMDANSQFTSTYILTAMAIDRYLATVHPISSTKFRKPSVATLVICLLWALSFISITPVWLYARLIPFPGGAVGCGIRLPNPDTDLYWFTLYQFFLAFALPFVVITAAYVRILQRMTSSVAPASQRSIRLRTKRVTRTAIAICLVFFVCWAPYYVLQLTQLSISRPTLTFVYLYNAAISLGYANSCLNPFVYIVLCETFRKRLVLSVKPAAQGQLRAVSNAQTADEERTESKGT
Method: Determination of Human MCH Receptor 1 (MCHR1) Binding Inhibitory Activity of Test Compound Using Binding Assay
1. Preparation of Membrane Fraction
Using human MCHR1(=SLC-1 receptor)-expressing CHO cell clone 57 described in WO01/82925, MCHR1-expressing CHO cellular membrane fractions were prepared by the following method.
In phosphate buffered saline (pH 7.4) supplemented with 5 mM EDTA (ethylenediaminetetraacetic acid) were respectively suspended human MCHR1-expressing CHO cells (1×10^8 cells) and centrifuged. Homogenate buffer (10 mL, 10 mM NaHCO3, 5 mM EDTA, pH 7.5, 0.5 mM PMSF (phenylmethylsulfonyl fluoride), 20 mg/L leupeptin, 4 mg/L E-64, 1 mg/L pepstatin A) was added to the pellets of the cells and, using Polytron Homogenizer, the mixture was homogenated. The supernatant obtained after centrifugation at 400×g for 10 min was further centrifuged at 100,000×g for 1 hr to give precipitate of the membrane fraction. The precipitate were suspended in 2 mL of assay buffer [20 mM Tris-HCl (pH 7.5), 5 mM EDTA, 0.5 mM PMSF, 20 mg/L leupeptin, 4 mg/L E-64, 1 mg/L pepstatin A]. The membrane fractions were suspended in assay buffer to a protein concentration of 2 mg/mL, and after dispensing, preserved at −80° C. and used upon thawing each time when in use.
The MCHR1 ligand binding inhibitory activity of the test compound was determined as follows.
An MCHR1-expressing CHO cellular membrane fraction (173 μL) diluted with an assay buffer was dispensed to a 96 well polypropylene plate (3363, Corning). DMSO solution (2 μL), 33 μM cold MCH(1-19) diluted with DMSO solution (2 μL), or a test compound solution diluted with DMSO solution to various concentrations (2 μL) was added, and lastly, [^125I]-MCH(4-19) diluted with assay buffer (hereinafter, sometimes to be referred to as “hot MCH”, 25 μL) was added to each well. The mixture was reacted with stirring at room temperature for 1 hr, and the plate was set on FilterMate Harvester (PerkinElmer). Using a treating glass filter plate (GF/C, PerkinElmer) with polyethyleneimine, which had been previously set, the plate was suction-filtered and washed three times with washing buffer (50 mM Tris-HCl buffer pH 7.5). The glass filter plate was dried, MicroScinti0 (PerkinElmer) was added at 25 μL/well, and the resulting radioactivity was measured by TopCount liquid scintillation counter (PerkinElmer). The binding inhibition rate of the test compound was calculated by the following formula. Binding inhibition (%)=100−(radioactivity upon addition of test compound and hot MCH−radioactivity upon addition of cold MCH and hot MCH solution)/(radioactivity upon addition of DMSO solution and hot MCH−radioactivity upon addition of cold MCH and hot MCH solution)×100
The binding inhibition rates (%) of test compounds (0.1 μM) as measured using human MCHR1-expressing CHO cell are shown in Table 2.

human MCHR1 [2] = molecular target: T1, human MCHR1; experiment: MCH receptor 1 antagonistic activity, Ca2+ mobilization assay; type: cell-based; details: test compound 0.1 μM; human MCHR1-expressing CHO cells (clone #4); MCH(4-19) 2 nM; read-out: Inhibition rate % (0.1 μM)
Method: Measurement of MCH Receptor 1 Antagonistic Activity of Test Compound Using Ca^2+ Mobilization Assay
Using an expression vector plasmid introduced with human MCHR1 gene for expression in animal cells, human MCHR1 gene was introduced into CHO cells (CHO dhfr^−) by Lipofectamine LTX (Invitrogen). The cells were cultured in selection MEMα medium [445 mL of MEMα medium without nucleic acid and added with 5 mL of Penicillin-Streptomycin (Invitrogen) and 50 mL of dialyzed fetal bovine serum]. Colony 24 clones grown in the selection medium, which were human MCHR1 gene-expressing CHO cell candidates, were selected. […] In the following test, this human MCHR1-expressing CHO cell (clone #4) was used. An integrated dispensing function fluorometer (CellLux, PerkinElmer) was used for Ca^2+ mobilization assay. The CHO cells were sown in a 96 well plate (type 3904, Corning) with a black wall and clear well bottom at a density of 20000 cells/well, and cultured in an incubator for about 24 hr at 5% CO2, 37° C. The medium was removed, and the cells were washed with phosphate buffered saline (PBS). A Ca^2+ indicator dye reagent (DOJINDO LABORATORIES, Ca screening no-wash kit Fluo4) was added at 100 μL/well, and the dye was allowed to penetrate into the cell for 30 min in an incubator at 5% CO2, 37° C. The plate was set on a plate reader. First, a test compound solution diluted with an assay buffer [10 mM HEPES (pH 7.4), 1× assay buffer containing 0.1% BSA (DOJINDO LABORATORIES, attached to Ca screening no-wash kit Fluo4)] or DMSO solution was added at 50 μL/well, and then ligand MCH (4-19) peptide (final concentration 2 nM) diluted with assay buffer or DMSO was added at 50 μL/well, during which changes in intracellular fluorescence were measured at 2 second intervals. The antagonistic activity of the test compound was calculated by the following formula and shown as an inhibition rate (%) wherein the intracellular fluorescence activity resulting from the stimulation by the addition of ligand MCH (4-19) peptide was 100% and that of the well added with DMSO solution alone was 0%. inhibitory rate (%)=100−[fluorescence activity upon addition of test compound and MCH(4-19) peptide solution−fluorescence activity upon addition of DMSO solution only]/[fluorescence activity upon addition of DMSO solution and MCH(4-19) peptide solution−fluorescence activity upon addition of DMSO solution only]×100
The inhibition rates (%) of test compounds (0.1 μM) as antagonist activity measured using human MCHR1-expressing CHO cells (clone #4) are shown in the following Table 3.

inhibition at 0.1 µM (human MCHR1 [1]) [%]	inhibition at 0.1 µM (human MCHR1 [2]) [%]	Compound
77	88	COc1cc(-n2ccc3oc(-c4ccc(Cl)cn4)cc3c2=O)ccc1OCC1(C#N)CC1 [Example 19, 1-((4-(2-(5-Chloropyridin-2-yl)-4-oxofuro[3,2-c]pyridin-5(4H)-yl)-2-methoxyphenoxy)methyl)cyclopropanecarbonitrile]
63	24	COc1cc(-n2ccc3oc(-c4ccc(OC(F)(F)F)cc4)cc3c2=O)ccc1OCC1(C#N)CC1 [Example 28, 1-((2-Methoxy-4-(4-oxo-2-(4-(trifluoromethoxy)phenyl)furo[3,2-c]pyridin-5(4H)-yl)phenoxy)methyl)cyclopropanecarbonitrile]
53	64	COc1cc(-n2ccc3oc(-c4ccc(Cl)s4)cc3c2=O)ccc1OCC1(C#N)CC1 [Example 12, 1-((4-(2-(5-Chloro-2-thienyl)-4-oxofuro[3,2-c]pyridin-5(4H)-yl)-2-methoxyphenoxy)methyl)cyclopropanecarbonitrile]
83	86	COc1cc(-n2ccc3oc(-c4ccc(F)cc4)cc3c2=O)ccc1OCC1(C#N)CC1 [Example 10, 1-((4-(2-(4-Fluorophenyl)-4-oxofuro[3,2-c]pyridin-5(4H)-yl)-2-methoxyphenoxy)methyl)cyclopropanecarbonitrile]
82	37	COc1cc(-n2cnc3oc(-c4ccc(Cl)cc4)cc3c2=O)ccc1OCC1(C#N)CC1 [Example 6, 1-((4-(6-(4-Chlorophenyl)-4-oxofuro[2,3-d]pyrimidin-3(4H)-yl)-2-methoxyphenoxy)methyl)cyclopropanecarbonitrile]

Second part, the molecule before the results:

Compound	inhibition at 0.1 µM (human MCHR1 [1]) [%]	inhibition at 0.1 µM (human MCHR1 [2]) [%]
COc1cc(-n2ccc3oc(-c4ccc(Cl)cc4)cc3c2=O)ccc1OCC1COC1 [Example 40, 2-(4-Chlorophenyl)-5-(3-methoxy-4-(oxetan-3-ylmethoxy)phenyl)furo[3,2-c]pyridin-4(5H)-one]	91	95
COc1cc(-n2ccc3oc(-c4ccc(Cl)cc4)cc3c2=O)ccc1OCC1(C)COC1 [Example 41, 2-(4-Chlorophenyl)-5-(3-methoxy-4-((3-methyloxetan-3-yl)methoxy)phenyl)furo[3,2-c]pyridin-4(5H)-one]	97	92
COc1cc(-n2ccc3oc(-c4ccc(Cl)cc4)cc3c2=O)ccc1OCC1CC1(F)F (stereo not shown) [Example 44, 2-(4-Chlorophenyl)-5-(4-((2,2-difluorocyclopropyl)methoxy)-3-methoxyphenyl)furo[3,2-c]pyridin-4(5H)-one]	85	45
